Laboratory results taken from patent US20230391786A1, “cGAS INHIBITORS” (Eli Lilly and Company, priority 2022, published 2023).
Counter-ions that a name gives are not always drawn. Like-named read-outs stand apart in the source and are kept apart here.

Tests used:
[1] = system: cGAS activity in THP1 cells (IFNb as marker); assay: Cellular assay to measure cGAS activity (IFNb production in PMA-differentiated THP1 cells stimulated by RDG-Adenovirus-GFP); type: cell-based, human; settings: PMA differentiated, RDG-Adenovirus-GFP 1000 MOI, IFNb AlphaLISA, overnight incubation, read-out: IC50 (μM), Cellular assay for Compounds 95-348
Procedure: Cellular assay to measure cGAS activity: Use THP1 cell line from ATCC to determine inhibition of cGAS activity by test compounds in human cells. Plate cells on 96-well plates at 0.2×10^6/well and differentiate with phorbol myristate acetate (PMA) at 37° C./5% CO2. After 24 hours, replace PMA containing media with media lacking PMA and further incubate overnight. Stimulate cells were then by RDG-Adenovirus-GFP (Vector Biolabs #1768) at 1000 MOI for 4 hours prior to the addition of test compounds. After overnight incubation, transfer 10 μL of the media from each well to a new plate for IFNb analysis as a marker for cGAS activity. Measure quantification of IFNb with an IFNb AlphaLISA Detection kit (Perkin Elmer AL3133F) by mixing the acceptor beads with the cell supernatant followed by the addition of the biotinylated antibody and donor beads. Measure the relative fluorescence signal produced from the interaction of the donor and acceptor beads by a PHERAStar AlphaLISA protocol and evaluate the inhibitory effect of a compound by plotting specific inhibition of IFNb production against log concentration of the test compound. Calculate IC50 values using a 4-parameter non-linear logistic equation (y=(S0+((SInf−S0)/(1+((qAC50/x)^nHill))))).

recombinant human cGAS = recombinant human cGAS (Homo sapiens (Human), UniProt Q8N884); assay: In vitro inhibition assay of cGAS activity (cGAMP production, RapidFire mass spectrometry); type: biochemical; settings: 10 nM recombinant human cGAS, 60 nM 75-bp dsDNA, ATP, GTP, room temperature 3 hours, read-out: IC50 (μM), In vitro inhibition assay for Compounds 95-348
Outline: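 Full-length His6-tagged human cGAS (10 nM, E. coli-expressed) was incubated 3 h at room temperature with 60 nM 75-bp dsDNA, ATP, 50 μM GTP and compound at pH 7.5 with 5 mM MgCl2. cGAMP formation was measured by RapidFire mass spectrometry, and IC50 was taken from a 4-parameter logistic fit.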

[2] = Homo sapiens, THP-1, THP1 cells

recombinant human cGAS, sequence (Q8N884 whole entry): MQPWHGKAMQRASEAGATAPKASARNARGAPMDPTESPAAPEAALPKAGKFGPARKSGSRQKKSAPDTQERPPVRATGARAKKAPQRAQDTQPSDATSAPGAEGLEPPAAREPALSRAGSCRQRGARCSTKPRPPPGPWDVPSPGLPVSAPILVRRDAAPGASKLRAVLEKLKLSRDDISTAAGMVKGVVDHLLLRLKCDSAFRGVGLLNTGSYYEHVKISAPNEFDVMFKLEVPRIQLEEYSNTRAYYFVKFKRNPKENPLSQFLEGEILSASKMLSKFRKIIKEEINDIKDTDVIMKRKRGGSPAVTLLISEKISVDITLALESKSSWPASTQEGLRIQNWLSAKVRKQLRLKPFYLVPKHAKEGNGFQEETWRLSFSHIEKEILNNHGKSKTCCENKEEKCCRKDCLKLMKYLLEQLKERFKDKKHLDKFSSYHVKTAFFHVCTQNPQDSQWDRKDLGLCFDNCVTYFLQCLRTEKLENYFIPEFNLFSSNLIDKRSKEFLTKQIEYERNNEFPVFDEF

SMILES	IC50 [1, 2] [µM]	IC50 (recombinant human cGAS) [µM]	IC50 ([1]; THP1 cells) [µM]
O[C@H]1CC[C@@H](Oc2cc(Cl)c(Cl)c3[nH]cc(-c4cn[nH]c4)c23)C1 (racemic) [Example 100, Cis-3-((6,7-Dichloro-3-(1H-pyrazol-4-yl)-1H-indol-4-yl)oxy)cyclopentan-1-ol (racemic mixture)]	> 10	0.0356	–
OC[C@@H]1C[C@@H]1Oc1cc(Cl)c(Cl)c2[nH]cc(-c3cn[nH]c3)c12 (racemic) [Example 137, Cis-[2-[[6,7-Dichloro-3-(1H-pyrazol-4-yl)-1H-indol-4-yl]oxy]cyclopropyl]methanol hydrochloride]	1.38	0.0165	–
O[C@H]1CC[C@H](Nc2cc(Cl)c(Cl)c3[nH]cc(-c4cn[nH]c4)c23)C1 (racemic) [Example 209, trans-3-[[6,7-Dichloro-3-(1H-pyrazol-4-yl)-1H-indol-4-yl]amino]cyclopentanol (racemic mixture)]	0.351	0.0158	–
O[C@@H]1C[C@H](Oc2cc(Cl)c(Cl)c3[nH]cc(-c4cn[nH]c4)c23)[C@@H](O)C1 (racemic) [Example 220, 4-[[6,7-Dichloro-3-(1H-pyrazol-4-yl)-1H-indol-4-yl]oxy]cyclopentane-1,3-diol (racemic mixture)]	0.556	0.0301	–
O=C(CO)NC1Cc2c(-c3cn[nH]c3)c3ccc(Cl)c(Cl)c3n2C1 (single isomer, unassigned) [Example 247, N-(5,6-Dichloro-9-(1H-pyrazol-4-yl)-2,3-dihydro-1H-pyrrolo[1,2-a]indol-2-yl)-2-hydroxyacetamide]	–	0.0146	2.73
O=C(CO)NC1Cc2c(-c3cn[nH]c3)c3ccc(Cl)c(Cl)c3n2C1 (single isomer, unassigned) [Example 248, N-(5,6-Dichloro-9-(1H-pyrazol-4-yl)-2,3-dihydro-1H-pyrrolo[1,2-a]indol-2-yl)-2-hydroxyacetamide]	–	0.0396	> 10
O=C1NCC(C(=O)N2CCn3c(c(-c4cn[nH]c4)c4ccc(Cl)c(Cl)c43)C2)O1 (single isomer, unassigned) [Example 259, 5-[6,7-Dichloro-10-(1H-pyrazol-4-yl)-3,4-dihydro-1H-pyrazino[1,2-a]indole-2-carbonyl]oxazolidin-2-one]	–	0.0373	0.765
O=C1NCC(C(=O)N2CCn3c(c(-c4cn[nH]c4)c4ccc(Cl)c(Cl)c43)C2)O1 (single isomer, unassigned) [Example 260, 5-[6,7-Dichloro-10-(1H-pyrazol-4-yl)-3,4-dihydro-1H-pyrazino[1,2-a]indole-2-carbonyl]oxazolidin-2-one]	–	0.0115	4.05
OCC(O)CNc1cc(Cl)c(Cl)c2[nH]cc(-c3cn[nH]c3)c12 (single isomer, unassigned) [Example 261, 3-[[6,7-Dichloro-3-(1H-pyrazol-4-yl)-1H-indol-4-yl]amino]propane-1,2-diol]	2.34	0.0452	–
OCC(O)CNc1cc(Cl)c(Cl)c2[nH]cc(-c3cn[nH]c3)c12 (single isomer, unassigned) [Example 262, 3-[[6,7-Dichloro-3-(1H-pyrazol-4-yl)-1H-indol-4-yl]amino]propane-1,2-diol]	–	0.0772	3.62
CC(=O)N1CCOC(CC(=O)N2CCn3c(c(-c4cn[nH]c4)c4ccc(Cl)c(Cl)c43)C2)C1 (single isomer, unassigned) [Example 264, 2-(4-acetylmorpholin-2-yl)-1-(6,7-dichloro-10-(1H-pyrazol-4-yl)-3,4-dihydropyrazino[1,2-a]indol-2(1H)-yl)ethan-1-one]	> 10	0.0462	–
CC(=O)N1CCOC(CC(=O)N2CCn3c(c(-c4cn[nH]c4)c4ccc(Cl)c(Cl)c43)C2)C1 (single isomer, unassigned) [Example 265, 2-(4-acetylmorpholin-2-yl)-1-(6,7-dichloro-10-(1H-pyrazol-4-yl)-3,4-dihydropyrazino[1,2-a]indol-2(1H)-yl)ethan-1-one]	–	0.0511	> 10
O[C@@H]1C[C@H](Oc2cc(Cl)c(Cl)c3[nH]cc(-c4cn[nH]c4)c23)[C@@H](O)C1 (single isomer, unassigned) [Example 270, 4-[[6,7-Dichloro-3-(1H-pyrazol-4-yl)-1H-indol-4-yl]oxy]cyclopentane-1,3-diol]	–	0.0207	0.635
O[C@@H]1C[C@H](Oc2cc(Cl)c(Cl)c3[nH]cc(-c4cn[nH]c4)c23)[C@@H](O)C1 (single isomer, unassigned) [Example 271, 4-[[6,7-Dichloro-3-(1H-pyrazol-4-yl)-1H-indol-4-yl]oxy]cyclopentane-1,3-diol]	–	0.184	6.75
O=C(CO)NC1CCn2c1c(-c1cn[nH]c1)c1ccc(Cl)c(Cl)c12 (single isomer, unassigned) [Example 345, N-(5,6-Dichloro-9-(1H-pyrazol-4-yl)-2,3-dihydro-1H-pyrrolo[1,2-a]indol-1-yl)-2-hydroxyacetamide]	–	0.0628	3.97
O=C(CO)NC1CCn2c1c(-c1cn[nH]c1)c1ccc(Cl)c(Cl)c12 (single isomer, unassigned) [Example 346, N-(5,6-Dichloro-9-(1H-pyrazol-4-yl)-2,3-dihydro-1H-pyrrolo[1,2-a]indol-1-yl)-2-hydroxyacetamide]	–	0.00769	0.914
OCCC1CCn2c1c(-c1cn[nH]c1)c1ccc(Cl)c(Cl)c12 (single isomer, unassigned; isomer 1) [Example 242, 2-(5,6-Dichloro-9-(1H-pyrazol-4-yl)-2,3-dihydro-1H-pyrrolo[1,2-a]indol-1-yl)ethan-1-ol isomer 1]	> 10	0.464	–
O[C@H]1CC[C@@H](Nc2cc(Cl)c(Cl)c3[nH]cc(-c4cn[nH]c4)c23)C1 (single isomer, unassigned; isomer 2) [Example 210, Cis-3-[[6,7-Dichloro-3-(1H-pyrazol-4-yl)-1H-indol-4-yl]amino]cyclopentanol, isomer 2]	2.17	0.0365	–
OCCC1CCn2c1c(-c1cn[nH]c1)c1ccc(Cl)c(Cl)c12 (single isomer, unassigned; isomer 2) [Example 243, 2-(5,6-Dichloro-9-(1H-pyrazol-4-yl)-2,3-dihydro-1H-pyrrolo[1,2-a]indol-1-yl)ethan-1-ol isomer 2]	–	0.0472	9.35
O=C(CO)NC1CCc2c(-c3cn[nH]c3)c3ccc(Cl)c(Cl)c3n2C1 (stereo not drawn) [Example 95, N-[3,4-Dichloro-10-(1H-pyrazol-4-yl)-6,7,8,9-tetrahydropyrido[1,2-a]indol-7-yl]-2-hydroxy-acetamide]	2.06	0.0159	–
Cn1ncnc1COCC(=O)N1CCn2c(c(-c3cn[nH]c3)c3c(OCC#N)cc(Cl)c(Cl)c32)C1 [Example 181]	> 10	–	–
OCCn1cc(-n2cc(-c3cn[nH]c3)c3ccc(Cl)cc32)nn1 [Example 229]	2.1	–	–
NC1CCn2c1c(-c1cn[nH]c1)c1ccc(Cl)c(Cl)c12 (stereo not drawn) [Example 241, 5,6-Dichloro-9-(1H-pyrazol-4-yl)-2,3-dihydro-1H-pyrrolo[1,2-a]indol-1-amine]	> 10	–	–
CCC(=O)NC(C)C(=O)N1CCn2c(c(-c3cn[nH]c3)c3ccc(Cl)c(Cl)c32)C1 (stereo not drawn) [Example 329, N-(1-(6,7-Dichloro-10-(1H-pyrazol-4-yl)-3,4-dihydropyrazino[1,2-a]indol-2(1H)-yl)-1-oxopropan-2-yl)propionamide]	–	0.0682	–
CN(C)C1(CC(=O)N2CCn3c(c(-c4cn[nH]c4)c4ccc(Cl)c(Cl)c43)C2)COC1 [Example 330, 1-(6,7-Dichloro-10-(1H-pyrazol-4-yl)-3,4-dihydropyrazino[1,2-a]indol-2(1H)-yl)-2-(3-(dimethylamino)oxetan-3-yl)ethan-1-one]	–	0.0801	–
CN1C(=O)CCCC1C(=O)N1CCn2c(c(-c3cn[nH]c3)c3ccc(Cl)c(Cl)c32)C1 (stereo not drawn) [Example 331, 6-(6,7-Dichloro-10-(1H-pyrazol-4-yl)-1,2,3,4-tetrahydropyrazino[1,2-a]indole-2-carbonyl)-1-methylpiperidin-2-one]	–	0.083	–
COCC(=O)NC(C)C(=O)N1CCn2c(c(-c3cn[nH]c3)c3ccc(Cl)c(Cl)c32)C1 (stereo not drawn) [Example 333, N-(1-(6,7-Dichloro-10-(1H-pyrazol-4-yl)-3,4-dihydropyrazino[1,2-a]indol-2(1H)-yl)-1-oxopropan-2-yl)-2-methoxyacetamide]	–	0.0918	–
COC1(C(=O)N2CCn3c(c(-c4cn[nH]c4)c4ccc(Cl)c(Cl)c43)C2)CCOC1 (stereo not drawn) [Example 334, (6,7-Dichloro-10-(1H-pyrazol-4-yl)-3,4-dihydropyrazino[1,2-a]indol-2(1H)-yl)(3-methoxytetrahydrofuran-3-yl)methanone]	–	0.0985	–
